Reference: ChEMBL document CHEMBL1201862, “PubChem BioAssay data set” (2004)
Active and inactive are the calls of the source.

Experiments:
[1] = tested on: Streptococcus sp. 'group A'; experiment: growth inhibition of control SK(-) GAS strain, dose response, counter-screen for streptokinase expression inhibitor project, luminescence, kanamycin, BacTiterGlo, confirmation (AID 1900); format: functional, organism-based
Streptokinase A = target: T1, Streptokinase A (Streptococcus pyogenes serotype M1, UniProt P10520); experiment: S. pyogenes streptokinase expression inhibitors, potency, dose response, plasminogen activation absorbance, OD405 (AID 1914); format: functional, Streptococcus pyogenes M1 GAS;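 also: secreted streptokinase activity via plasminogen activation per viability signal from cell pellet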
T1 sequence (P10520 whole entry): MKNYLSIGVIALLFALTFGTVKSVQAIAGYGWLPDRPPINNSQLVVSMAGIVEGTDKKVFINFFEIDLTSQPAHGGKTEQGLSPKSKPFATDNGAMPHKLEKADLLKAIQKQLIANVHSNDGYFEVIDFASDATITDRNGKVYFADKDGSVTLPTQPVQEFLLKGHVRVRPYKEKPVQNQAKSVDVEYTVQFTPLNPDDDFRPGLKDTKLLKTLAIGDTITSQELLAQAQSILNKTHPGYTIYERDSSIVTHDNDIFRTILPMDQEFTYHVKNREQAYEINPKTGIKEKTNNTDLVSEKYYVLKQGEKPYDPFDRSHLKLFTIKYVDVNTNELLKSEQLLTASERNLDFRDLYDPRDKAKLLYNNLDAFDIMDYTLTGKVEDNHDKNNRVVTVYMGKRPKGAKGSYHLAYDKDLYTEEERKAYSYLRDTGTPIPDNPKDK

Streptococcus = experiment: Group A Streptococcus viability loss, dose response, counter-screen for streptokinase expression inhibitor project, luminescence, BacTiterGlo (AID 1915); format: functional, organism-based;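 also: potency for reduction of bacterial viability or growth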
[2] = target: T2, Ubiquitin-conjugating enzyme E2 N (Homo sapiens, UniProt P61088); format: functional;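 also: Dose-response confirmation in a TR-FRET assay detecting UBC13-driven polyubiquitin chain formation, inhibition measured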
T2 sequence (P61088 whole entry): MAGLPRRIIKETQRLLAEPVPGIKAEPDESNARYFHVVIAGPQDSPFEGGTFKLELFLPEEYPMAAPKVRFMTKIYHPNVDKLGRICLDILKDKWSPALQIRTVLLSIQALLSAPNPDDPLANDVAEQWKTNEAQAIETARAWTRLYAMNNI

HEK293 = experiment: inhibitors of LMP1-driven NF-kB reporter, dose response, cell-based, HEK293, luciferase, cherry-pick (AID 588343); format: functional; conditions: Homo sapiens
[3] = target: T3, Polyadenylate-binding protein 1 (Homo sapiens, UniProt P11940); experiment: PABP1 MLLE–PAM2 interaction inhibitors, dose response, miRNA deadenylation inhibitor project, biochemical, fluorescence polarization, Cy5-PAM2 peptide, secondary (AID 602260); format: functional; conditions: read-out: IC50_Mean
[4] = target: T3, Polyadenylate-binding protein 1; experiment: PABP1 MLLE–PAM2 binding inhibitor potency, dose response, biochemical, fluorescence polarization, FITC-PAM2 peptide (AID 602259); format: functional; conditions: read-out: IC50_Mean
[5] = microbe, parasite or virus in culture; format: functional; conditions: Mycobacterium tuberculosis
Vero = Vero cell cytotoxicity, cytotoxicity control for flavivirus capping enzyme inhibitors (AID 588742); format: functional; conditions: Chlorocebus sabaeus
[6] = target: 26S proteasome non-ATPase regulatory subunit 14 (Homo sapiens, UniProt O00487); experiment: inhibition of proteasome subunit RPN11 – biochemical, fluorescence polarization, uHTS hits, confirmation (AID 602368); format: functional
[7] = target: 72 kDa type IV collagenase (Homo sapiens, UniProt P08253); experiment: Dose Response validation of uHTS RPN11 inhibitor hits using a MMP-2 Fluorescence assay.; format: functional
Prothrombin = Prothrombin (Bos taurus, UniProt P00735); experiment: thrombin inhibition, dose response, biochemical, fluorescence polarization, uHTS hits (AID 602369); format: functional
[8] = inhibitors of intracellular T. cruzi replication, confirmation, NIH3T3 host cells, beta-gal luminescence (AID 2044); format: functional, cell-based;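 also: intracellular parasites grown in NIH/3T3 mouse fibroblasts as host cells; luminescent beta-galactosidase reporter signal from transgenic T. cruzi replicating inside host cells; inhibitors lower the luminescence signal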
[9] = cytotoxicity toward NIH3T3 fibroblasts, dose response, counter-screen, cell-based, ATP luminescence, mouse fibroblasts (AID 2010); format: functional;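 also: cells exposed to compound for about 90 hours before reading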
[10] = target: Heat shock protein HSP 90-alpha (Homo sapiens, UniProt P07900); format: functional, organism-based
[11] = target: Arf-GAP with SH3 domain, ANK repeat and PH domain-containing protein 1 (Homo sapiens, UniProt Q9ULH1); format: functional;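 also: biochemical fluorescence polarization dose–response screen measuring inhibition of ASAP1; ASAP1 GAP domain stimulating GTP hydrolysis by truncated human ARF1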
[12] = inhibitors of firefly luciferase expression or activity, dose response, H4 neuroglioma cells, luminescence (AID 1990); format: functional, cell-based
[13] = Luminescence Cell-Based Dose Response HTS to Identify Inhibitors of 5'UTR Stem-Loop Driven Prion Protein mRNA Translation in H4 Neuroglioblastoma Cells. [Related pubchem assays: 1827 (Project Summary), 1813 (Primary HTS)]; format: functional
[14] = inhibitors of SNCA 5'UTR-driven reporter translation, confirmation, H4 neuroglioma cells, luminescence (AID 1988); format: functional, cell-based
[15] = A549 cell cytotoxicity, dose response, cytotoxicity control, plate reader, cherry-pick, antagonist series (AID 743412); format: functional, cell-based
[16] = LGR2 antagonists, dose response, cell-based, HEK293, CRE-luciferase reporter, cherry pick, set 2 (AID 743343); format: functional;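 also: transfected cells were stimulated with diluted bursicon conditioned medium after compound addition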
[17] = MC4R antagonists, dose response, counter-screen for LGR2 antagonist project, cell-based, plate reader, cherry pick (AID 743444); format: functional;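 also: transfected HEK 293 cells stimulated with alpha-MSH peptide; potency of inhibitors of the alpha-MSH evoked signal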
[18] = HEK293 cell cytotoxicity, dose response, cytotoxicity control, plate reader, cherry-picked samples (AID 743446); format: functional, cell-based
[19] = target: Adenosylmethionine-8-amino-7-oxononanoate aminotransferase (Mycobacterium tuberculosis, UniProt P9WQ81); experiment: Mycobacterium tuberculosis BioA enzyme inhibitor Measured in Biochemical System Using Plate Reader - 2163-02_Inhibitor_Dose_CherryPick_Activity.; format: functional, Mycobacterium tuberculosis UT205
[20] = target: T4, Aryl hydrocarbon receptor (Homo sapiens, UniProt P35869); conditions: Potency;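 also: confirmatory quantitative high-throughput screen measuring activation of the AhR signaling pathway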
T4 sequence (P35869 whole entry): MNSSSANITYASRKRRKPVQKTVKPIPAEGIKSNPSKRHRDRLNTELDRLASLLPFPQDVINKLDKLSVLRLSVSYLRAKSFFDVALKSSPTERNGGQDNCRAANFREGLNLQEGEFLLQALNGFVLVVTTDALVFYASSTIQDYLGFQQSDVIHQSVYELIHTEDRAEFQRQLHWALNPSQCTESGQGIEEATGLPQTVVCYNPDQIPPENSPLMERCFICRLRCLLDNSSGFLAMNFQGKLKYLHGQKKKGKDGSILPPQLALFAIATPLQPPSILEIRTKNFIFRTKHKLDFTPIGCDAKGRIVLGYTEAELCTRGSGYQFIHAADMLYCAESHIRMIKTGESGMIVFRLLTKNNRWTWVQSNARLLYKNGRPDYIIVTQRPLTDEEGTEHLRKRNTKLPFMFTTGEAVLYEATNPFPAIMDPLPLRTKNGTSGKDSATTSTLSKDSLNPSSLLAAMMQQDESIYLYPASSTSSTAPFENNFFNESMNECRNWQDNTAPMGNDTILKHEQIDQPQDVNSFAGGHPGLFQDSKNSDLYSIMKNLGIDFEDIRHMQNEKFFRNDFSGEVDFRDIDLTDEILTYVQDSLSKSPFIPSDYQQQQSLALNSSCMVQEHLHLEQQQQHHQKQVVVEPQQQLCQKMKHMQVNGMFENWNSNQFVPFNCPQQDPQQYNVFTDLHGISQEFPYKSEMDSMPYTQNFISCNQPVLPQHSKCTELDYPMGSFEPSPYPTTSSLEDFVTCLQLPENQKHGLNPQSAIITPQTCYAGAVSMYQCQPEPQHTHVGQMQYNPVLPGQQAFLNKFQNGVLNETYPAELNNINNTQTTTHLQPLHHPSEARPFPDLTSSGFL

Large T antigen = Large T antigen (Simian virus 40, UniProt P03070); format: functional, Betapolyomavirus macacae;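 also: Confirmatory-stage PubChem screen for compounds that inhibit SV40 T antigen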
Chain of Large T antigen (P03070 whole entry): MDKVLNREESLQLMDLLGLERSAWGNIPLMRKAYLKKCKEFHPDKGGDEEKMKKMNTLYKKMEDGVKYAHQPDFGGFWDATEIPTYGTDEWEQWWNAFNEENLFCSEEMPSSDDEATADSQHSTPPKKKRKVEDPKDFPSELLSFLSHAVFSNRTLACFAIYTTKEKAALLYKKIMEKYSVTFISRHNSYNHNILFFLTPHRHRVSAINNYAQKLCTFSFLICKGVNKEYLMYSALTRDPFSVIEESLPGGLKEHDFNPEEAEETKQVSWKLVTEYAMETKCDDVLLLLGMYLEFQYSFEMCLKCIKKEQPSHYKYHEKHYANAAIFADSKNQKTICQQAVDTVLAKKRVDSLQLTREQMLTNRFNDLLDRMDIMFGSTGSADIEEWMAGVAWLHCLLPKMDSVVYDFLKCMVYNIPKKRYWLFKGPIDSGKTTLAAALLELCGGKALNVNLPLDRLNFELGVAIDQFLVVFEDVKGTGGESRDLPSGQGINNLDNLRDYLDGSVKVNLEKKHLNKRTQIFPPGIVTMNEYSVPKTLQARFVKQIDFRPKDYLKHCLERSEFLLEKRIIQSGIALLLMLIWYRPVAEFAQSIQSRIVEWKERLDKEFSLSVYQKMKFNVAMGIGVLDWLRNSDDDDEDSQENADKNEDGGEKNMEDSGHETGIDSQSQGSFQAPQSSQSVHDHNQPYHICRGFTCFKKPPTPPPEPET

Chain of 72 kDa type IV collagenase (P08253 whole entry): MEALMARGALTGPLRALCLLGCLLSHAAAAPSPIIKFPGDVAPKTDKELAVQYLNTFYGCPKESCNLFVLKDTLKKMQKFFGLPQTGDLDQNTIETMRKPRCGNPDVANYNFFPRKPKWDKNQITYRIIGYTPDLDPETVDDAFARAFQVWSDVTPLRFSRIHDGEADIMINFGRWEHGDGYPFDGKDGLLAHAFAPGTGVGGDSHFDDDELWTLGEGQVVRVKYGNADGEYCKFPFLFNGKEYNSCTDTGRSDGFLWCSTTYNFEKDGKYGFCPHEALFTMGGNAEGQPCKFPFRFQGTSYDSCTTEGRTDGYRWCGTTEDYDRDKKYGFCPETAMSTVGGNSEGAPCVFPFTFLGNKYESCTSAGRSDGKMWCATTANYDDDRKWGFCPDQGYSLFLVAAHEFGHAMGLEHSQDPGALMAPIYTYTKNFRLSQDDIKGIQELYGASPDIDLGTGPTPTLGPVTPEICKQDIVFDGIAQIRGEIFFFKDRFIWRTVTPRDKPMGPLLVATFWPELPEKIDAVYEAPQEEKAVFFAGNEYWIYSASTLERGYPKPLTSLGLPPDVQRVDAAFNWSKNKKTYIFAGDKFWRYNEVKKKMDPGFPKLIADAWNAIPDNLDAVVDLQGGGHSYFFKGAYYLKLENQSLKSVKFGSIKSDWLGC
T3 sequence (P11940 whole entry): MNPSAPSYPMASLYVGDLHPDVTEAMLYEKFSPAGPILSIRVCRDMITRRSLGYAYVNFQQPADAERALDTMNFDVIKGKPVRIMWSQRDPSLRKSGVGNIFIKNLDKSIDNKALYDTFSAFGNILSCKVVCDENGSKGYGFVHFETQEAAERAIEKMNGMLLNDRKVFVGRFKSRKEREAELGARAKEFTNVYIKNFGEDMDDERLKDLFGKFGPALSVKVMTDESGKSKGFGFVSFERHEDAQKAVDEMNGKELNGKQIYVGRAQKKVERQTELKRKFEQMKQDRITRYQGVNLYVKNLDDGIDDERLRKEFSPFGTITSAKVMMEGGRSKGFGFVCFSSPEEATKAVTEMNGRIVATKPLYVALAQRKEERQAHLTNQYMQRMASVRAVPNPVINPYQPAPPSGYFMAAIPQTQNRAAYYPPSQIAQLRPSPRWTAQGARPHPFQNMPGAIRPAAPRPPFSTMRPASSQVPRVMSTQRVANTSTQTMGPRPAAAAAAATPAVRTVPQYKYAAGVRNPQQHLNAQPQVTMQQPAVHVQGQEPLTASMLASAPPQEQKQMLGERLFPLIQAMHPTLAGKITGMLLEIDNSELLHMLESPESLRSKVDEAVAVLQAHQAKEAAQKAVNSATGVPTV
Chain of 26S proteasome non-ATPase regulatory subunit 14 (O00487 whole entry): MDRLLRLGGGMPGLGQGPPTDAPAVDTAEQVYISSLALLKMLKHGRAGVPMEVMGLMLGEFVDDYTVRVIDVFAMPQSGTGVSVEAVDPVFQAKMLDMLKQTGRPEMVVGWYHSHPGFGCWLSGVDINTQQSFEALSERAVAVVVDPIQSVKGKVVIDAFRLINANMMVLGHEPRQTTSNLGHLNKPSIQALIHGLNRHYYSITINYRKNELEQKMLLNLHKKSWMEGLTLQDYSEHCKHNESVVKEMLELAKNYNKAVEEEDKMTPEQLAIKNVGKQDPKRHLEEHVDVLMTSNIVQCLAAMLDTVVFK
Chain of Adenosylmethionine-8-amino-7-oxononanoate aminotransferase (P9WQ81 whole entry): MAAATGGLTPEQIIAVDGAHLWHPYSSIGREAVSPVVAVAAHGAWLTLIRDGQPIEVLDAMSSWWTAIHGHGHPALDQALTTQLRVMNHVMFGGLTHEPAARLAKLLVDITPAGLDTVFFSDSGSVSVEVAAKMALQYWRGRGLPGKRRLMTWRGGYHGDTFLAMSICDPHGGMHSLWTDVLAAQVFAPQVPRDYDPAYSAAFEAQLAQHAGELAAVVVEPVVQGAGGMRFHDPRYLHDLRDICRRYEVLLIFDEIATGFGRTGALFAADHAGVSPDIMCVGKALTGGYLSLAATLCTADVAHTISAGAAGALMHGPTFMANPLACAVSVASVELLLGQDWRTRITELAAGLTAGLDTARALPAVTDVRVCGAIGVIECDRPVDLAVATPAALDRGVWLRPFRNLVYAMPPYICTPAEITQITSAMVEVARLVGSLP
Chain of Arf-GAP with SH3 domain, ANK repeat and PH domain-containing protein 1 (Q9ULH1 whole entry, the tested form may be a part): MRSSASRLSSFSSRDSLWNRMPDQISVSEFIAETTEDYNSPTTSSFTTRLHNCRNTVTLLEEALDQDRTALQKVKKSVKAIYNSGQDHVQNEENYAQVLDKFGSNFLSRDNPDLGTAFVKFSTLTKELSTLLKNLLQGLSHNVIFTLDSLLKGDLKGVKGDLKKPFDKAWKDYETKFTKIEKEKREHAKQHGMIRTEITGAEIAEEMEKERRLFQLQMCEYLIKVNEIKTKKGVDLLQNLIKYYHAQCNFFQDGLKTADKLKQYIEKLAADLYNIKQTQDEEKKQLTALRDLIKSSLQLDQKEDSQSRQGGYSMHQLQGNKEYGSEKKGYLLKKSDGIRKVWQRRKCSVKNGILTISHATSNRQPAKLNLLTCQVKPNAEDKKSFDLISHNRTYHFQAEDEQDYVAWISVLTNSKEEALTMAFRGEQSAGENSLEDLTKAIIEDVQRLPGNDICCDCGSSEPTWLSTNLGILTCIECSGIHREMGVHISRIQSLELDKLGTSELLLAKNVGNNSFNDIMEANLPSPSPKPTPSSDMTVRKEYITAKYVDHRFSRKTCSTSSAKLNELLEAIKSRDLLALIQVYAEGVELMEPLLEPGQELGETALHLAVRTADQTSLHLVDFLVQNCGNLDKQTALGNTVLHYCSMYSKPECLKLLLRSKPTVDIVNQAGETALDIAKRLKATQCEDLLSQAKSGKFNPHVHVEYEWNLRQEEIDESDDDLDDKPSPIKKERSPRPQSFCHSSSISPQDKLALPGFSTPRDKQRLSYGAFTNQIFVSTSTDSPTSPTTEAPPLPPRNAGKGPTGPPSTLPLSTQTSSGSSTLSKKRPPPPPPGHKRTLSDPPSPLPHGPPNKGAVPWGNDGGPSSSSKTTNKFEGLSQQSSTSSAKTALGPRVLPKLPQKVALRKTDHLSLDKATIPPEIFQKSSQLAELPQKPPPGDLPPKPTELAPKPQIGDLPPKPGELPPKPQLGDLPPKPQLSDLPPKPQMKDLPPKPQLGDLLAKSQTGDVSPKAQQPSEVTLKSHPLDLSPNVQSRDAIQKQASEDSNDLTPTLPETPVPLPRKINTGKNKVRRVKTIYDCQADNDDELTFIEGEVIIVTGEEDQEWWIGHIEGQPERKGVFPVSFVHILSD

CCOc1ccc(NC(=S)N=Nc2c(O)[nH]c3ccccc23)cc1
EC50 [1]: 0.465 µM (active) | EC50 (Streptokinase A): > 150 µM (not active) | EC50 (Streptococcus): 5.53 µM (active) | IC50 [2]: > 20 µM (inactive) | AC50 (HEK293): 2.7 µM (active) | IC50 [3]: > 66 µM (inactive) | IC50 [4]: > 66 µM (inactive)

c1ccc(-n2cnc3cc(NCc4cccs4)ccc32)cc1
CC50 [5]: > 40 µM (active) | CC50 (Vero): > 40 µM (active)

Cc1ccc(C)c(OCCn2cc(/C=C(/C#N)C(=O)NCC3CCCO3)c3ccccc32)c1 (stereo unspecified)
IC50 [6]: 27.5 µM (active) | IC50 [7]: > 100 µM (inactive) | IC50 (Prothrombin): 45.4 µM (active)

COC(=O)c1ccc(NC(=O)c2cn(-c3ccccc3)nc2-c2ccncc2)cc1
EC50 [8]: 1.9 µM (active) | EC50 [9]: > 60 µM (not active) | AC50 [10]: 4.18 µM (active) | IC50 [11]: 17.2 µM (inactive)

Cc1cc(N2CCCC2)c(F)cc1/C=C\[N+](=O)[O-]
IC50 [6]: 14.7 µM (active) | IC50 [7]: > 100 µM (inactive) | IC50 (Prothrombin): 20 µM (active)

Cc1ccnc(NC(=O)CCC(=O)c2cccs2)c1
EC50 [12]: 4.73 µM (inconclusive) | EC50 [13]: 2.97 µM (active) | EC50 [14]: 2.36 µM (active) | AC50 (HEK293): 3 µM (active) | AC50 [15]: > 52 µM (inactive) | AC50 [16]: 2.38 µM (active) | AC50 [17]: 2.17 µM (active) | AC50 [18]: 34.9 µM (active)

COC(=O)c1sc(N)c(C(=O)OC)c1CSc1nnc(-c2ccccc2Cl)n1C
AC50 [19]: 1.07 µM (active)

Oc1ccc2cc(SSc3ccc4cc(O)ccc4c3)ccc2c1
AC50 [20]: 56.2 µM (inconclusive)

O=c1c(-c2ccc([N+](=O)[O-])cc2)coc2c(O)c(O)ccc12
IC50 (Large T antigen): 13.8 µM (active) | CC50 (Vero): 21.4 µM (active)
